The text below walks through data of US20040077580A1, “Antisense modulation of PI3K P85 Expression” (priority 2000, published 2004).

Strand notation (5' to 3'): a small letter for the sugar, then the base; units joined by * are phosphorothioate-linked, units joined directly phosphodiester-linked; [ ] holds rarer units or linkages, { } end groups; capitals alone tell only the bases. e = 2'-O-(2-methoxyethyl) (MOE); [5mC] = 5-methylcytosine; d = 2'-deoxy (DNA)

This data set has as its system mouse PI3K p85. The experiment in a line: Inhibition of mouse PI3K p85 mRNA levels by antisense oligonucleotides, real-time quantitative RT-PCR. In kind it is cell-based. The following applies: chimeric phosphorothioate 2′-MOE gapmers, averaged from two experiments. The arrangement: concentration or dose not given beside the values. As to the method:
Cells were harvested 16 hours after oligonucleotide treatment.
Target sites are indicated by nucleotide numbers, as given in the sequence source reference (Genbank accession no. U50413; SEQ ID NO: 48), to which the oligonucleotide binds.
Cytidine residues are 5-methylcytidines throughout the oligonucleotides.
Data were obtained by real-time quantitative RT-PCR as described in other examples herein and are averaged from two experiments. […] If present, “N.D.” indicates “no data”.
“131407 (antisense e[5mC]*eG*e[5mC]*eT*e[5mC]*d[5mC]*dA*d[5mC]*dT*d[5mC]*dT*d[5mC]*dA*dG*d[5mC]*eT*eT*e[5mC]*eA*e[5mC]) [compound 131407]”: the “% Inhib. of mouse PI3K p85 mRNA levels” value is listed as 85%. Regarding “gcactcatgtctgcagctct (eG*e[5mC]*eA*e[5mC]*eT*d[5mC]*dA*dT*dG*dT*d[5mC]*dT*dG*d[5mC]*dA*eG*e[5mC]*eT*e[5mC]*eT; antisense) [ISIS 131409]”, the “% Inhib. of mouse PI3K p85 mRNA levels” value is given as “at least 60%”. Consider “131419 (antisense eG*e[5mC]*eT*e[5mC]*e[5mC]*dT*dG*dG*dG*dT*dT*dT*dG*dG*d[5mC]*eA*eT*eT*eG*eT) [compound 131419]”, for which the “% Inhib. of mouse PI3K p85 mRNA levels” value stood at 45%. For the substance “131426 (antisense eG*e[5mC]*eA*eT*e[5mC]*dA*dA*dT*dG*dT*dT*d[5mC]*dT*d[5mC]*dT*e[5mC]*eA*eA*eA*eG) [compound 131426]”, the “% Inhib. of mouse PI3K p85 mRNA levels” value is recorded as 75%. For “131415 (antisense eA*eT*eA*e[5mC]*eT*dG*dA*dA*dG*d[5mC]*dG*dT*dA*dA*dG*e[5mC]*e[5mC]*eA*eA*e[5mC]) [compound 131415]”, the “% Inhib. of mouse PI3K p85 mRNA levels” value was found to be 75%. Consider “131411 (antisense e[5mC]*e[5mC]*eA*eG*eT*dG*dG*dT*dT*dT*d[5mC]*dA*dT*dT*dG*eT*eA*eG*e[5mC]*e[5mC]) [compound 131411]”, for which the “% Inhib. of mouse PI3K p85 mRNA levels” value was 90%.

As for “cgctccactctcagcttcac (e[5mC]*eG*e[5mC]*eT*e[5mC]*d[5mC]*dA*d[5mC]*dT*d[5mC]*dT*d[5mC]*dA*dG*d[5mC]*eT*eT*e[5mC]*eA*e[5mC]; antisense) [ISIS 131407]”, the “% Inhib. of mouse PI3K p85 mRNA levels” value is “at least 60%”. Consider “131413 (antisense eT*e[5mC]*eT*e[5mC]*e[5mC]*dA*dA*dG*dT*d[5mC]*d[5mC]*dA*d[5mC]*dT*dG*eA*e[5mC]*eG*e[5mC]*eG) [compound 131413]”, for which the “% Inhib. of mouse PI3K p85 mRNA levels” value is recorded as 56%. Regarding “131408 (antisense e[5mC]*e[5mC]*eA*eT*e[5mC]*dT*dG*dT*d[5mC]*d[5mC]*dT*d[5mC]*d[5mC]*dA*dT*e[5mC]*eA*eA*e[5mC]*eG) [compound 131408]”, the “% Inhib. of mouse PI3K p85 mRNA levels” value is given as 88%. Turning to “131412 (antisense e[5mC]*eT*eT*eG*e[5mC]*dT*dG*d[5mC]*dT*d[5mC]*d[5mC]*dG*dT*dG*dT*e[5mC]*eA*eG*e[5mC]*eT) [compound 131412]”, the “% Inhib. of mouse PI3K p85 mRNA levels” value is given as 85%.

Regarding “cgatctctcggtactcagct (e[5mC]*eG*eA*eT*e[5mC]*dT*d[5mC]*dT*d[5mC]*dG*dG*dT*dA*d[5mC]*dT*e[5mC]*eA*eG*e[5mC]*eT; antisense) [ISIS 131420]”, the “% Inhib. of mouse PI3K p85 mRNA levels” value is given as “at least 60%”. For the substance “131420 (antisense e[5mC]*eG*eA*eT*e[5mC]*dT*d[5mC]*dT*d[5mC]*dG*dG*dT*dA*d[5mC]*dT*e[5mC]*eA*eG*e[5mC]*eT) [compound 131420]”, the “% Inhib. of mouse PI3K p85 mRNA levels” value is 79%.

With “gctcccgacattccacgtct (eG*e[5mC]*eT*e[5mC]*e[5mC]*d[5mC]*dG*dA*d[5mC]*dA*dT*dT*d[5mC]*d[5mC]*dA*e[5mC]*eG*eT*e[5mC]*eT; antisense) [ISIS 131421]”, the “% Inhib. of mouse PI3K p85 mRNA levels” value was “at least 60%”.

On to “tgctggtgctggctgtctct (eT*eG*e[5mC]*eT*eG*dG*dT*dG*d[5mC]*dT*dG*dG*d[5mC]*dT*dG*eT*e[5mC]*eT*e[5mC]*eT; antisense) [ISIS 131416]”, for which the “% Inhib. of mouse PI3K p85 mRNA levels” value was “at least 60%”. Take “ggtgtaagagtgtaatcgcc (eG*eG*eT*eG*eT*dA*dA*dG*dA*dG*dT*dG*dT*dA*dA*eT*e[5mC]*eG*e[5mC]*e[5mC]; antisense) [ISIS 131417]”: the “% Inhib. of mouse PI3K p85 mRNA levels” value is recorded as “at least 60%”. For the substance “cttgctgctccgtgtcagct (e[5mC]*eT*eT*eG*e[5mC]*dT*dG*d[5mC]*dT*d[5mC]*d[5mC]*dG*dT*dG*dT*e[5mC]*eA*eG*e[5mC]*eT; antisense) [ISIS 131412]”, the “% Inhib. of mouse PI3K p85 mRNA levels” value is given as “at least 60%”.
